From patent publication US12319912B2, “MicroRNA expression promoting agent and food or beverage for promoting expression of microRNA” (Kewpie Corporation, priority 2019, dated 2025)

Legend:
Format in all cases: in vivo, nude mice (BALB/c-nu/nu)
Details in all cases: 0.25% (w/w) pterostilbene in feed, MM-231-luc-D3H2LN tumors removed at 21 days, female nude mice
miR-200c = assay: Expression level of miR-200c in removed tumors after oral administration of pterostilbene-containing feed (quantitative RT-PCR)
Description: (§1) An animal feed for test (pterostilbene-containing powdery animal feed) was prepared by the following method. That is, first, 50 g of corn oil was weighed and heated to 70° C. Pterostilbene was added to the heated corn oil and was dissolved therein. Reagents other than corn oil and pterostilbene (other reagents) were ground in a mortar, and the mixture was mixed. The corn oil in which pterostilbene was dissolved was added to the mixture of other reagents, and the mixture was mixed by sufficiently grinding in a mortar. Subsequently, the mixture was further mixed with a stirrer for about 30 minutes, and thus an animal feed for test was prepared. […]
(§2) At a time point where one week had passed after grouping, the mice in each group were subjected to a cancer cell transplantation experiment. […] Confirmation of whether the cancer cells were transplanted was achieved by leaving the animals for a while after transplantation, intraperitoneally administering a 15 mg/ml luciferin solution (Beetle Luciferin, Potassium Salt, Promega Corporation) in an amount of 150 mg/kg, and measuring cell-derived luminescence (luciferase activity) with IVIS Spectrum (PerkinElmer, Inc.) after about 10 minutes. […] The body weights of the mice were measured in a timely manner. […] Then, luminescence was observed over time with IVIS spectrum every other week from the day of administration initiation. […]

miR-34a = assay: Expression level of miR-34a in removed tumors after oral administration of pterostilbene-containing feed (quantitative RT-PCR)
Description: as §1, §2

miR-16 = assay: Expression level of miR-16 in removed tumors after oral administration of pterostilbene-containing feed (quantitative RT-PCR)
Description: as §1, §2

miR-141 = assay: Expression level of miR-141 in removed tumors after oral administration of pterostilbene-containing feed (quantitative RT-PCR)
Description: as §1, §2

miR-126 = assay: Expression level of miR-126 in removed tumors after oral administration of pterostilbene-containing feed (quantitative RT-PCR)
Description: as §1, §2

let-7a = assay: Expression level of let-7a in removed tumors after oral administration of pterostilbene-containing feed (quantitative RT-PCR)
Description: as §1, §2

miR-193b = assay: Expression level of miR-193b in removed tumors after oral administration of pterostilbene-containing feed (quantitative RT-PCR)
Description: as §1, §2

COc1cc(/C=C/c2ccc(O)cc2)cc(OC)c1 [pterostilbene, Pterostilbene]
promoted: expression of miR-200c as compared to the control group (miR-200c) | expression of miR-34a as compared to the control group (miR-34a) | expression of miR-16 as compared to the control group (miR-16) | expression of miR-141 as compared to the control group (miR-141) | expression of miR-126 as compared to the control group (miR-126) | expression of let-7a as compared to the control group (let-7a) | expression of miR-193b as compared to the control group (miR-193b)
